Results as given in US20250271426A1, “REDUCTION OF BITTER TASTE OF ACTIVE PHARMACEUTICAL INGREDIENTS AND RELATED ASSAYS AND SCREENING METHODS” (Firmenich Incorporated, priority 2022, published 2025).

How the values were obtained:
Assay in all cases: FLIPR calcium assay, cells with promiscuous G protein transfected with bitter receptor cDNA
Assay type in all cases: cell-based
Conditions in all cases: responsive if cellular response of >10% over baseline, Fluo4-AM
[1] = molecular target: T1, T2R receptor SEQ ID NO: 2 (S2) (Homo sapiens, UniProt Q9NYW2)
T1 construct: expressed in transfected cells; host or cells: cells expressing a promiscuous G protein (e.g., G16g44)
T1 sequence (Q9NYW2 1-309): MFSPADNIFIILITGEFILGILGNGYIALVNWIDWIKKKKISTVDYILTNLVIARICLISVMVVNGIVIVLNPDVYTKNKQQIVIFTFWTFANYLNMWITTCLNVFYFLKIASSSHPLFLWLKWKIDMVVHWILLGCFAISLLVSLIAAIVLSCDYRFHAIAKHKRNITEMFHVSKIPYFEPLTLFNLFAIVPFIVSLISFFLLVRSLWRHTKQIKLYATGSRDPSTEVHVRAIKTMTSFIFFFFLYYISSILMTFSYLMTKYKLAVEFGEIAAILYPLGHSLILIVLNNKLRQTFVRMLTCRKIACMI
Procedure: (§1) Cells expressing a promiscuous G protein (e.g., G16g44) were transfected with vectors encoding 22 functional bitter receptor cDNAs, with one receptor per transfection. The cells were transfected directly in 384-well format high-density plates and incubated for 28 hours. Later, cells were loaded with the Ca-specific dye Fluo4-AM. After an incubation of 60 minutes, excess dye is washed off, and cells are stimulated with respective bitter agonists while simultaneously recording changes in intracellular fluorescence using a FLIPR instrument.
(§2) The above protocol was carried out using 94 different active pharmaceutical ingredients (APIs) that span a wide range of different APIs having a diversity of chemical structures. A particular T2R receptor was identified as being responsive to a particular API if it triggered a cellular response of >10% over baseline.

[2] = molecular target: T2, T2R receptor SEQ ID NO: 4 (S4) (Homo sapiens, UniProt Q9NYV8)
T2 construct: expressed in transfected cells; host or cells: cells expressing a promiscuous G protein (e.g., G16g44)
T2 sequence (Q9NYV8 1-317): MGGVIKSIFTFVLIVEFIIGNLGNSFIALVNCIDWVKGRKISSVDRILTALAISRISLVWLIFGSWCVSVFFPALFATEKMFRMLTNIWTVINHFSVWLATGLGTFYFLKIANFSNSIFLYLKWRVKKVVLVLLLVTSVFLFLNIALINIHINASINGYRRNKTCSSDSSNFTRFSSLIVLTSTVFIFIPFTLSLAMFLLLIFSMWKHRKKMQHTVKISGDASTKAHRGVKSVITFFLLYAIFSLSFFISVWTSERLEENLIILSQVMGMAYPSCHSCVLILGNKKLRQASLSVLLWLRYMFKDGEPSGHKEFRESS
Procedure: as §1, §2

[3] = molecular target: T3, T2R receptor SEQ ID NO: 3 (S3) (Homo sapiens, UniProt Q9NYW0, T156M)
T3 construct: expressed in transfected cells; host or cells: cells expressing a promiscuous G protein (e.g., G16g44)
T3 sequence (Q9NYW0 1-307 T156M): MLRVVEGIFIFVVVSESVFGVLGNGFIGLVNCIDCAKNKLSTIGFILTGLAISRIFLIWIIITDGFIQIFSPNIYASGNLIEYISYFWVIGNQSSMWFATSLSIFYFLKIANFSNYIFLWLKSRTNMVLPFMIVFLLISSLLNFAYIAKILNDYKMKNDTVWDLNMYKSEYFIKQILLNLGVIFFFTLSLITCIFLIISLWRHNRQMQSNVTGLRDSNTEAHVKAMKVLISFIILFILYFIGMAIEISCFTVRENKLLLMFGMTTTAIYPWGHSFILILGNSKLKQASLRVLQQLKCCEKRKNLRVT
Procedure: as §1, §2

[4] = molecular target: T4, T2R receptor SEQ ID NO: 6 (S6) (Homo sapiens, UniProt P59540)
T4 construct: expressed in transfected cells; host or cells: cells expressing a promiscuous G protein (e.g., G16g44)
T4 sequence (P59540 1-309): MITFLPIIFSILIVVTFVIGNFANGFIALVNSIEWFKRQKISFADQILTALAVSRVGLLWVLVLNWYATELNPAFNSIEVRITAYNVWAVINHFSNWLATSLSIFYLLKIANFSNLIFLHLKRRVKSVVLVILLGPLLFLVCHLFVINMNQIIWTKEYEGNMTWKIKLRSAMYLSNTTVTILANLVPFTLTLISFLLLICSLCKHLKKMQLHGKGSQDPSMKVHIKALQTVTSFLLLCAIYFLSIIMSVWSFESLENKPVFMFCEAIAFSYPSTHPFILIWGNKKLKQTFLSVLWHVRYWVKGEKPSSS
Procedure: as §1, §2

[5] = molecular target: T5, T2R receptor SEQ ID NO: 5 (S5) (Homo sapiens, UniProt P59534)
T5 construct: expressed in transfected cells; host or cells: cells expressing a promiscuous G protein (e.g., G16g44)
T5 sequence (P59534 18-338): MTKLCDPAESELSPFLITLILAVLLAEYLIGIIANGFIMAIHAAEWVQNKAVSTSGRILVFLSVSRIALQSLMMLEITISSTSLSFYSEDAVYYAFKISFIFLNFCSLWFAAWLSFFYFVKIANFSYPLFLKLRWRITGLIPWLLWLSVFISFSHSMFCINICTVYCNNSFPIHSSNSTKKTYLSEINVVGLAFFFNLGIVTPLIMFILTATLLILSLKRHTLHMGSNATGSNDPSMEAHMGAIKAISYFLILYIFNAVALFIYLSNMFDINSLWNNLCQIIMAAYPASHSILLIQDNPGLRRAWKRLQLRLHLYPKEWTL
Procedure: as §1, §2

[6] = molecular target: T6, T2R receptor SEQ ID NO: 1 (S1) (Homo sapiens, UniProt Q9NYW7)
T6 construct: expressed in transfected cells; host or cells: cells expressing a promiscuous G protein (e.g., G16g44)
T6 sequence (Q9NYW7 1-299): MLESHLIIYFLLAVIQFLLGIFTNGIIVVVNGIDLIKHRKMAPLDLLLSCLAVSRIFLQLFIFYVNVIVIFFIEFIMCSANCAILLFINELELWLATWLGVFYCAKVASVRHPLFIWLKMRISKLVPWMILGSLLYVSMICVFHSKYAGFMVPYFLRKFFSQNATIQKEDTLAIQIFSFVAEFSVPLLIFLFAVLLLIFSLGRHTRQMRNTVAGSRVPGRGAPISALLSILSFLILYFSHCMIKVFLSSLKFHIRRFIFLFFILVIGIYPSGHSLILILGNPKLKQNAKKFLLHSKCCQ
Procedure: as §1, §2

Row | SMILES | S2 positive response of T2R receptor to API [1] | S4 positive response of T2R receptor to API [2] | S3 positive response of T2R receptor to API [3] | S6 positive response of T2R receptor to API [4] | S5 positive response of T2R receptor to API [5] | S1 positive response of T2R receptor to API [6]
1 | COc1ccc2nc([S@@+]([O-])Cc3ncc(C)c(OC)c3C)[nH]c2c1 [Esomeprazole] | + (a “+” to indicate whether a particular T2R receptor showed a positive response to a particular API) | + (a “+” to indicate whether a particular T2R receptor showed a positive response to a particular API) | + (a “+” to indicate whether a particular T2R receptor showed a positive response to a particular API) | + (a “+” to indicate whether a particular T2R receptor showed a positive response to a particular API) | – | –
2 | CC(C)(C)NC[C@H](O)COc1nsnc1N1CCOCC1 [Timolol] | – | – | + (a “+” to indicate whether a particular T2R receptor showed a positive response to a particular API) | + (a “+” to indicate whether a particular T2R receptor showed a positive response to a particular API) | + (a “+” to indicate whether a particular T2R receptor showed a positive response to a particular API) | + (a “+” to indicate whether a particular T2R receptor showed a positive response to a particular API)
3 | OC(CCCN1CCCCC1)(c1ccccc1)c1ccccc1 [Diphenidol] | – | + (a “+” to indicate whether a particular T2R receptor showed a positive response to a particular API) | + (a “+” to indicate whether a particular T2R receptor showed a positive response to a particular API) | + (a “+” to indicate whether a particular T2R receptor showed a positive response to a particular API) | + (a “+” to indicate whether a particular T2R receptor showed a positive response to a particular API) | + (a “+” to indicate whether a particular T2R receptor showed a positive response to a particular API)
4 | COc1ccc2c(c1)[C@]13CCCC[C@@H]1[C@H](C2)N(C)CC3 [Dextromethorphan] | – | + (a “+” to indicate whether a particular T2R receptor showed a positive response to a particular API) | + (a “+” to indicate whether a particular T2R receptor showed a positive response to a particular API) | + (a “+” to indicate whether a particular T2R receptor showed a positive response to a particular API) | + (a “+” to indicate whether a particular T2R receptor showed a positive response to a particular API) | + (a “+” to indicate whether a particular T2R receptor showed a positive response to a particular API)
5 | N=C(NCCCCCCNC(=N)NC(=N)Nc1ccc(Cl)cc1)NC(=N)Nc1ccc(Cl)cc1.O=C(O)[C@H](O)[C@@H](O)[C@H](O)[C@H](O)CO.O=C(O)[C@H](O)[C@@H](O)[C@H](O)[C@H](O)CO [Chlorhexidine Digluconate] | – | + (a “+” to indicate whether a particular T2R receptor showed a positive response to a particular API) | – | + (a “+” to indicate whether a particular T2R receptor showed a positive response to a particular API) | + (a “+” to indicate whether a particular T2R receptor showed a positive response to a particular API) | + (a “+” to indicate whether a particular T2R receptor showed a positive response to a particular API)
6 | CC(=O)CC(c1ccccc1)c1c(O)c2ccccc2oc1=O (stereo not drawn) [Warfarin] | – | + (a “+” to indicate whether a particular T2R receptor showed a positive response to a particular API) | – | – | + (a “+” to indicate whether a particular T2R receptor showed a positive response to a particular API) | + (a “+” to indicate whether a particular T2R receptor showed a positive response to a particular API)
7 | CN(C)CCC(c1ccc(Br)cc1)c1ccccn1 (stereo not drawn) [Brompheniramine] | – | + (a “+” to indicate whether a particular T2R receptor showed a positive response to a particular API) | + (a “+” to indicate whether a particular T2R receptor showed a positive response to a particular API) | + (a “+” to indicate whether a particular T2R receptor showed a positive response to a particular API) | + (a “+” to indicate whether a particular T2R receptor showed a positive response to a particular API) | + (a “+” to indicate whether a particular T2R receptor showed a positive response to a particular API)
8 | CN(C)CCC(c1ccc(Cl)cc1)c1ccccn1 (stereo not drawn) [Chlorpheniramine] | – | + (a “+” to indicate whether a particular T2R receptor showed a positive response to a particular API) | + (a “+” to indicate whether a particular T2R receptor showed a positive response to a particular API) | + (a “+” to indicate whether a particular T2R receptor showed a positive response to a particular API) | + (a “+” to indicate whether a particular T2R receptor showed a positive response to a particular API) | + (a “+” to indicate whether a particular T2R receptor showed a positive response to a particular API)
9 | NCC1(CC(=O)O)CCCCC1 [Gabapentin] | + (a “+” to indicate whether a particular T2R receptor showed a positive response to a particular API) | – | + (a “+” to indicate whether a particular T2R receptor showed a positive response to a particular API) | – | – | –
10 | CCn1cc(C(=O)O)c(=O)c2cc(F)c(N3CCNC(C)C3)c(F)c21 (stereo not drawn) [Lomefloxacin] | + (a “+” to indicate whether a particular T2R receptor showed a positive response to a particular API) | – | – | + (a “+” to indicate whether a particular T2R receptor showed a positive response to a particular API) | – | –
